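Exposure lasted 48 hours, with cells grown in 96-well plates and compounds tested at five concentrations. TGI denotes the concentration required for complete inhibition of growth.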
What was measured:
Assay in all cases: NCI anticancer screen, dose series, 48 h
[1] = system: NCI-H522 lung
[2] = system: HL-60(TB) leukemia
[3] = system: HCT-116 colon
[4] = system: SK-OV-3 ovarian
[5] = system: PC-3 prostate
[6] = system: KM12 colon
[7] = system: A498 renal
[8] = system: SF-295 CNS
[9] = system: HS 578T breast
[10] = system: OVCAR-4 ovarian
[11] = system: BT-549 breast
[12] = system: 786-0 renal
[13] = system: LOX IMVI melanoma
[14] = system: SF-268 CNS
[15] = system: RPMI-8226 leukemia
[16] = system: MCF7 breast
[17] = system: OVCAR-3 ovarian
[18] = system: T-47D breast
[19] = system: TK-10 renal
[20] = system: MDA-MB-435
[21] = system: NCI-H23 lung
[22] = system: CAKI-1 renal
[23] = system: COLO 205 colon
[24] = system: NCI-H460 lung
[25] = system: U251 CNS
[26] = system: EKVX NSCLC
[27] = system: HOP-62 NSCLC
[28] = system: SK-MEL-5 melanoma
[29] = system: DU-145 prostate
[30] = system: A549 NSCLC
[31] = system: UACC-62 melanoma
[32] = system: UACC-257 melanoma
[33] = system: CCRF-CEM leukemia
[34] = system: SN12C renal
[35] = system: HCT-15 colon
[36] = system: M14 melanoma
[37] = system: OVCAR-8 ovarian
[38] = system: MDA-N
[39] = system: NCI/ADR-RES ovarian
[40] = system: ACHN renal
[41] = system: SNB-19 CNS
[42] = system: SK-MEL-2 melanoma
[43] = system: MDA-MB-231 breast
[44] = system: MOLT-4 leukemia
[45] = system: NCI-H226 lung
[46] = system: HT29 colon
[47] = system: K-562 leukemia
[48] = system: OVCAR-5 ovarian
[49] = system: SR leukemia
[50] = system: UO-31 renal
[51] = system: SW-620 colon
[52] = system: IGROV1 ovarian
[53] = system: SF-539 CNS
[54] = system: HOP-92 NSCLC
[55] = system: SNB-75 CNS
[56] = system: HCC-2998 colon
[57] = system: MALME-3M melanoma
[58] = system: SK-MEL-28 melanoma
[59] = system: RXF 393 renal

Measured: TGI

CN1CCN(CC(=O)N2CCCn3c2nc2ccccc2c3=O)CC1
not listed: [58] | [59]
> 100 µM: all other assays above

Cc1cc(C)c2c(c1)CC1(Cc3c(ccc(C)c3C)C1=O)C2=O (stereo not drawn)
not listed: [13] | [23] | [27]
> 100 µM: all other assays above
